Laboratory results taken from patent US10626112B2, “Heterocyclic sulfonamide derivative and medicine comprising same” (EA PHARMA CO., LTD., priority 2014, dated 2020).

What was measured:
[1] = molecular target: T1, human TRPA1 (Homo sapiens (Human), UniProt O75762); experiment: Measurement of TRPA1 antagonist activity (1): intracellular calcium increase; type: cell-based; conditions: 293T cells transfected with human TRPA1 expression plasmid; allylisothiocyanate 20 μM stimulation; intracellular calcium fluorescence; read-out: hTRPA1 IC50
Method in brief: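 HEK293T cells transiently transfected with full-length human TRPA1, loaded with Calcium4 dye in HBSS/20 mM HEPES pH 7.2. Test compound preincubated 10 min, then allylisothiocyanate added at 20 μM final and fluorescence change followed for 5 min. IC50 from sigmoid fit of percent inhibition relative to agonist and buffer controls.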

[2] = molecular target: T1, human TRPA1; experiment: Measurement of TRPA1 antagonist activity (2): as (1), different lot of human TRPA1 expression plasmid; type: cell-based; conditions: 293T cells transfected with human TRPA1, allylisothiocyanate 20 μM stimulation, calcium fluorescence, read-out: hTRPA1 IC50
Protocol: Human embryonic kidney-derived 293T cells were cultured in Dulbecco's Modified Eagle Medium containing 10% fetal bovine serum, 10 unit penicillin, and 10 μg streptomycin, plated on a petri dish having a diameter of 10 cm at 3×10^6 cells, and cultured for 24 hr in a CO2 incubator. A reduced serum medium (manufactured by Invitrogen, trade name: OPTI-MEM, 600 μL), a gene transfer reagent (manufactured by Mirus Bio, trade name: Mirus TransIT-293, 18 μL), and human TRPA1 expression plasmid (6 μg) were mixed, the total amount of the mixture was added to the cells on the petri dish to allow for gene transfer. The cells were recovered about for 8 hr later, plated on a poly-D-lysine coated 384 well black/clear bottom plate at 12,000 cells/well, and cultured overnight.
Measurement of Intracellular Calcium Increase
The 384 well plate was recovered, and the medium was removed. A calcium-bonded fluorescent indicator (manufactured by Molecular Device, trade name: Calcium4 Assay Kit, 38 μL) dissolved in assay buffer (1×HBSS, 20 mM HEPES, pH 7.2) was added, and the cells were stained in a CO2 incubator for 1 hr. The cells were taken out at room temperature, stood for not less than 15 min, a test substance (10 μL) was added by a platereader FDSS7000 (Hamamatsu Photonics K.K.) equipped with a 384ch dispenser. After 10 min, allylisothiocyanate (12 μL) was further added at a final concentration of 20 μM, and changes in the relative fluorescence intensity after addition of allylisothiocyanate were measured for 5 min.
Test Substance Preparation
The test substance was dissolved in dimethyl sulfoxide and serially diluted with an assay buffer containing 0.1% bovine serum albumin (1×HBSS, 20 mM HEPES, pH 7.2) to a 4.8-fold concentration of the evaluation concentration. Allylisothiocyanate, which is a known TRPA1 activator, was dissolved in dimethyl sulfoxide to 100 mM, and further diluted 5-fold (100 μM) of the final concentration, like the test substance.
Calculation of Antagonist Activity
Under the test substance-free conditions, the maximum variation range of the fluorescence intensity before and after allylisothiocyanate stimulation was defined to be 100% activity rate, and the variation range before and after buffer stimulation was defined as 0% activity rate. The activity rate on addition of the test substance was determined, and the numerical value obtained by subtracting the activity rate from 100 was defined to be an inhibitory rate. IC50, which is the concentration of the test substance necessary for reaching the 50% inhibitory rate, was calculated from the sigmoid approximate curve by a spreadsheet software Excel-Fit.
Measurement of TRPA1 Antagonist Activity (2)
By a method similar to that in Experimental Example 1-1 except that the lot of human […] expression plasmid is different, the TRPA1 antagonist activity of the test substance was measured.

T1 sequence (O75762 whole entry): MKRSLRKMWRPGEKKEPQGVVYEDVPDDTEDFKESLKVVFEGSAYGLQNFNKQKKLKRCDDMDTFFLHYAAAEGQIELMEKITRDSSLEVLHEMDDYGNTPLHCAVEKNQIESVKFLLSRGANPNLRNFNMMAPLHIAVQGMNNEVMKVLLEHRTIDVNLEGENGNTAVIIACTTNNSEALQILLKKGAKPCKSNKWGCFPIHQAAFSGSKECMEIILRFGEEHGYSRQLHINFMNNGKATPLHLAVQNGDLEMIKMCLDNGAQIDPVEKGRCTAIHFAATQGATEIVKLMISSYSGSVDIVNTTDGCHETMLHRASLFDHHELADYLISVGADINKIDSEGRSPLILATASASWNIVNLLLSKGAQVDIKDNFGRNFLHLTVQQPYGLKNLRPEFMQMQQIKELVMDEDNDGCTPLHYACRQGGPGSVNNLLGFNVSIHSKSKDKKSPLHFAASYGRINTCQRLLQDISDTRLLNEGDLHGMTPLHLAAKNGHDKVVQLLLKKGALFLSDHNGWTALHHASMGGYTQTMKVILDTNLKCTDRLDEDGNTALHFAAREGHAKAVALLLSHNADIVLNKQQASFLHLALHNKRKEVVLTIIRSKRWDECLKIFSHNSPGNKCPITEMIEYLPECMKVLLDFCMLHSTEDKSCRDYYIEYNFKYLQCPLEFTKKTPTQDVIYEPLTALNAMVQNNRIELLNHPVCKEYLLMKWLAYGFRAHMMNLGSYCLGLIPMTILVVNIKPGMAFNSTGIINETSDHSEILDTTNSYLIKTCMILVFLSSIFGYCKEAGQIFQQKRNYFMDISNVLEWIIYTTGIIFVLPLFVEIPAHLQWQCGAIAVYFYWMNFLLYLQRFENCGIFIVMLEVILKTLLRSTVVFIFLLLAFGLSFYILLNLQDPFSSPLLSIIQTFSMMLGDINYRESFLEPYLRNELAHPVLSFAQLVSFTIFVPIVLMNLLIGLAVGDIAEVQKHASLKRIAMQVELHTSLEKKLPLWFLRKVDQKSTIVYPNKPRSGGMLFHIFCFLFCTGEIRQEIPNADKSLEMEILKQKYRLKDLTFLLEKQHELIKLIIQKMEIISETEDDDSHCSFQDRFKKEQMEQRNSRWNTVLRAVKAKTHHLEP

| Molecule | IC50 [1] | IC50 [2] |
| --- | --- | --- |
| CC#CCN([C@@H](C)C(=O)NCc1ccnc(-c2ccc(C(F)(F)F)nc2)c1)S(=O)(=O)c1cc2cc(F)ccc2o1 [Example 313, (2S)-2-[but-2-ynyl-(5-fluorobenzofuran-2-yl)sulfonyl-amino]-N-[[2-[6-(trifluoromethyl)-3-pyridyl]-4-pyridyl]methyl]propanamide] | 37 nM |  |
| O=C(NCc1cccc([S+]([O-])Cc2ccc(C(F)(F)F)cc2)c1)[C@@H]1CCCN1S(=O)(=O)c1cc2ccccc2o1 (stereo partly drawn) [Example 316, (2S)-1-(benzofuran-2-ylsulfonyl)-N-[[3-[[4-(trifluoromethyl)phenyl]methylsulfinyl]phenyl]methyl]pyrrolidine-2-carboxamide] | 230 nM |  |
| O=C(NCc1cccc(CNc2ccc(C(F)(F)F)cn2)c1)[C@@H]1CCCN1S(=O)(=O)c1cc2ccccc2o1 [Example 320, (2S)-1-(benzofuran-2-ylsulfonyl)-N-[[3-[[[5-(trifluoromethyl)-2-pyridyl]amino]methyl]phenyl]methyl]pyrrolidine-2-carboxamide] | 920 nM |  |
| O=C(NCc1cccc(S(=O)(=O)c2ccc(C(F)(F)F)cc2)c1)[C@@H]1CCCN1S(=O)(=O)c1cc2ccccc2o1 [Example 322, (2S)-1-(benzofuran-2-ylsulfonyl)-N-[[3-[4-(trifluoromethyl)phenyl]sulfonylphenyl]methyl]pyrrolidine-2-carboxamide] | 310 nM |  |
| O=C(NCc1cccc([S+]([O-])c2ccc(C(F)(F)F)cc2)c1)[C@@H]1CCCN1S(=O)(=O)c1cc2ccccc2o1 (stereo partly drawn) [Example 323, (2S)-1-(benzofuran-2-ylsulfonyl)-N-[[3-[4-(trifluoromethyl)phenyl]sulfinylphenyl]methyl]pyrrolidine-2-carboxamide] | 200 nM |  |
| O=C(NCc1cccc(S(=O)(=O)Cc2ccc(C(F)(F)F)cc2)c1)[C@@H]1CCCN1S(=O)(=O)c1cc2ccccc2o1 [Example 324, (2S)-1-(benzofuran-2-ylsulfonyl)-N-[[3-[[4-(trifluoromethyl)phenyl]methylsulfonyl]phenyl]methyl]pyrrolidine-2-carboxamide] | 490 nM |  |
| O=C(NCc1cccc(C[S+]([O-])c2ccc(C(F)(F)F)cc2)c1)[C@@H]1CCCN1S(=O)(=O)c1cc2ccccc2o1 (stereo partly drawn) [Example 325, (2S)-1-(benzofuran-2-ylsulfonyl)-N-[[3-[[4-(trifluoromethyl)phenyl]sulfinylmethyl]phenyl]methyl]pyrrolidine-2-carboxamide] | 560 nM |  |
| O=C(NCc1cc(-c2ccc(C(F)(F)F)cc2)nc(N2CCC2)n1)[C@@H]1CCCN1S(=O)(=O)c1cc2ccccc2o1 [Example 328, (2S)-N-[[2-(azetidin-1-yl)-6-[4-(trifluoromethyl)phenyl]pyrimidin-4-yl]methyl]-1-(benzofuran-2-ylsulfonyl)pyrrolidine-2-carboxamide] |  | 16 nM |
| CN(C)[C@@H]1C[C@@H](C(=O)NCc2ccnc(-c3ccc(C(F)(F)F)cc3O)c2)N(S(=O)(=O)c2cc3ccccc3o2)C1 [Example 334, (2S,4R)-1-(benzofuran-2-ylsulfonyl)-4-(dimethylamino)-N-[[2-[2-hydroxy-4-(trifluoromethyl)phenyl]-4-pyridyl]methyl]pyrrolidine-2-carboxamide] | 630 nM |  |
| CC[C@H](NS(=O)(=O)c1cc2cc(F)ccc2o1)C(=O)NCc1cc(-c2ccc(C(F)(F)F)cn2)ccn1 [Example 335, (2S)-2-[(5-fluorobenzofuran-2-yl)sulfonylamino]-N-[[4-[5-(trifluoromethyl)-2-pyridyl]-2-pyridyl]methyl]butaneamide] | 54 nM |  |

Further lines, results first:

| IC50 [1] | IC50 [2] | Molecule |
| --- | --- | --- |
| 4.6 nM |  | C#CCN([C@@H](C)C(=O)NCc1ccnc(-c2ccc(C(F)(F)F)nc2)c1)S(=O)(=O)c1cc2cc(F)ccc2o1 [Example 314, (2S)-2-[(5-fluorobenzofuran-2-yl)sulfonyl-prop-2-ynyl-amino]-N-[[2-[6-(trifluoromethyl)-3-pyridyl]-4-pyridyl]methyl]propanamide] |
| 22 nM |  | O=C(NCc1cccc(SCc2ccc(C(F)(F)F)cc2)c1)[C@@H]1CCCN1S(=O)(=O)c1cc2ccccc2o1 [Example 315, (2S)-1-(benzofuran-2-ylsulfonyl)-N-[[3-[[4-(trifluoromethyl)phenyl]methylsulfanyl]phenyl]methyl]pyrrolidine-2-carboxamide] |
| 31 nM |  | O=C(NCc1cccc(/C=C/c2ccc(C(F)(F)F)cc2)c1)[C@@H]1CCCN1S(=O)(=O)c1cc2ccccc2o1 [Example 317, (2S)-1-(benzofuran-2-ylsulfonyl)-N-[[3-[(E)-2-[4-(trifluoromethyl)phenyl]vinyl]phenyl]methyl]pyrrolidine-2-carboxamide] |
| 14 nM |  | O=C(NCc1cccc(CCc2ccc(C(F)(F)F)cc2)c1)[C@@H]1CCCN1S(=O)(=O)c1cc2ccccc2o1 [Example 318, (2S)-1-(benzofuran-2-ylsulfonyl)-N-[[3-[2-[4-(trifluoromethyl)phenyl]ethyl]phenyl]methyl]pyrrolidine-2-carboxamide] |
| 27 nM |  | O=C(NCc1cccc(Cc2ccccc2)c1)[C@@H]1CCCN1S(=O)(=O)c1cc2cc(F)ccc2o1 [Example 319, (2S)—N-[(3-benzylphenyl)methyl]-1-(5-fluorobenzofuran-2-yl)sulfonyl-pyrrolidine-2-carboxamide] |
| 33 nM |  | O=C(NCc1cccc(Sc2ccc(C(F)(F)F)cc2)c1)[C@@H]1CCCN1S(=O)(=O)c1cc2ccccc2o1 [Example 321, (2S)-1-(benzofuran-2-ylsulfonyl)-N-[[3-[4-(trifluoromethyl)phenyl]sulfanylphenyl]methyl]pyrrolidine-2-carboxamide] |
| 29 nM |  | CNc1nc(CNC(=O)[C@@H]2CCCN2S(=O)(=O)c2cc3ccccc3o2)cc(-c2ccc(C(F)(F)F)cc2)n1 [Example 326, (2S)-1-(benzofuran-2-ylsulfonyl)-N-[[2-(methylamino)-6-[4-(trifluoromethyl)phenyl]pyrimidin-4-yl]methyl]pyrrolidine-2-carboxamide] |
| 4.3 nM |  | O=C(NCc1cc(-c2ccc(C(F)(F)F)cc2)nc(OCc2ccccc2)n1)[C@@H]1CCCN1S(=O)(=O)c1cc2ccccc2o1 [Example 327, (2S)-1-(benzofuran-2-ylsulfonyl)-N-[[2-benzyloxy-6-[4-(trifluoromethyl)phenyl]pyrimidin-4-yl]methyl]pyrrolidine-2-carboxamide] |
| 5.8 nM |  | CC(C)(C)OC(=O)c1ccc(CNC(=O)[C@@H]2CCCN2S(=O)(=O)c2cc3ccccc3o2)cc1-c1ccc(C(F)(F)F)cc1 [Example 336, tert-butyl 4-[[[(2S)-1-(benzofuran-2-ylsulfonyl)pyrrolidine-2-carbonyl]amino]methyl]-2-[4-(trifluoromethyl)phenyl]-benzoate] |
| 22 nM |  | CN(C)C(=O)c1ccc(CNC(=O)[C@@H]2CCCN2S(=O)(=O)c2cc3ccccc3o2)cc1-c1ccc(C(F)(F)F)cc1 [Example 337, (2S)-1-(benzofuran-2-ylsulfonyl)-N-[[4-(dimethylcarbamoyl)-3-[4-(trifluoromethyl)phenyl]-phenyl]methyl]pyrrolidine-2-carboxamide] |
| 7.1 nM |  | (2S)-1-(5-fluorobenzofuran-2-yl)sulfonyl-N-[[3-[2-methyl-5-(trifluoromethyl)pyrazol-3-yl]phenyl]methyl]pyrrolidine-2-carboxamide [Example 164] |
| 12 nM |  | (2S)-1-(5-fluorobenzofuran-2-yl)sulfonyl-N-[[3-[[2-morpholino-4-pyridyl)-methoxy]phenyl]-methyl]pyrrolidine-2-carboxamide [Example 18] |
| 1.3 nM |  | (2S)-1-(5-fluorobenzofuran-2-yl)sulfonyl-N-[[3-[[4-(trifluoromethyl)phenyl]methoxy]-phenyl]methyl]pyrrolidine-2-carboxamide [Example 41] |
| 1.6 nM |  | (2S)-1-(benzofuran-2-ylsulfonyl)-N-[[3-[6-(trifluoromethyl)-3-pyridyl]phenyl]methyl]pyrrolidine-2-carboxamide [Example 79] |
